Reference: patent US20130165450A1, “Novel Thiazol-Carboximide Derivatives as PDK1 Inhibitors” (priority 2010, published 2013)

Molecular target: T1, recombinant human PDK1 (amino acids 51-556) (Homo sapiens, UniProt O15530)
T1 construct: containing amino acids 51-556 of the human PDK1 enzyme; made in house
T1 sequence (O15530 51-556): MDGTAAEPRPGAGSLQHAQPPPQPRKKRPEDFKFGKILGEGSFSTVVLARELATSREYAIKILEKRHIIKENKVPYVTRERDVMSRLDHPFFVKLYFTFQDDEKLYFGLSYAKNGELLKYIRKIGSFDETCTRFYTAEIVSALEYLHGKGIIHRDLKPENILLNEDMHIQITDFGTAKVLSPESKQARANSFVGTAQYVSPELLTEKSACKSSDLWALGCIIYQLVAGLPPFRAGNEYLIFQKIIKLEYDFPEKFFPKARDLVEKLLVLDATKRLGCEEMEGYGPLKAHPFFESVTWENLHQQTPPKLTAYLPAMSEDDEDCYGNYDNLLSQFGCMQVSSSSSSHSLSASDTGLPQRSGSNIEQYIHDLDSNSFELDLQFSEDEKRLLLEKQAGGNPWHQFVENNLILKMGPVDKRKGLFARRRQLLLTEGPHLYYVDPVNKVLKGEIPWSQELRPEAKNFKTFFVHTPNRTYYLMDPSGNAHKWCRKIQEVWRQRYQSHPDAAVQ
Experiment: PDK1 IMAP fluorescence polarization kinase assay
Assay type: biochemical
Settings: 10 nM PDK1, 100 nM peptide substrate, 100 nM PIFtide, 2.5 uM ATP, 1.5 hours; numeric values

First: Nc1ccc(N2CCC[C@@H](N)C2)c(NC(=O)c2csc(-c3cnn(Cc4cccs4)c3)n2)c1 [Compound 1, N-[5-amino-2-(3(R)-amino-1-piperidinyl)phenyl]-2-[1-(2-thienylmethyl)-1H-pyrazol-4-yl]-4-thiazolecarboxamide]
Second: Nc1ccc(N2CCC3(CCCNC3)CC2)c(NC(=O)c2csc(-c3cnn(Cc4cccs4)c3)n2)c1 [Compound 7, N-[5-amino-2-(2,9-diazaspiro[5.5]undec-9-yl)phenyl]-2-[1-(2-thienylmethyl)-1H-pyrazol-4-yl]-4-thiazolecarboxamide]
The IC50 of the first is 8.6-fold lower: 7 nM for the first, 60 nM for the second. The first is the more potent here.

Same assay, conditions: 10 nM PDK1, 100 nM peptide substrate, 100 nM PIFtide, 2.5 uM ATP, 1.5 hours; rated A-D

Nc1ccc(N2CCC[C@@H](N)C2)c(NC(=O)c2csc(-c3cnn(Cc4cccnc4)c3)n2)c1 [Compound 18, N-[5-amino-2-(3(R)-amino-1-piperidinyl)phenyl]-2-[1-(3-pyridinylmethyl)-1H-pyrazol-4-yl]-4-thiazolecarboxamide] and Nc1ccc(N2CCC[C@@H](N)C2)c(NC(=O)c2csc(-c3cnn(Cc4cccc(F)c4)c3)n2)c1 [Compound 19, N-[5-amino-2-(3(R)-amino-1-piperidinyl)phenyl]-2-[1-[(3-fluorophenyl)methyl]-1H-pyrazol-4-yl]-4-thiazolecarboxamide] fall in the same range of IC50: 1 to 50 nM for the first, 1 to 50 nM for the second.

First: CN(C)CCCn1cc(-c2nc(C(=O)Nc3cc(N)ccc3N3CCC[C@@H](N)C3)cs2)cn1 [Compound 2, N-[5-amino-2-(3(R)-amino-1-piperidinyl)phenyl]-2-[1-[3-(dimethylamino)propyl]-1H-pyrazol-4-yl]-4-thiazolecarboxamide]
Second: COCCn1cc(-c2nc(C(=O)Nc3cc(N)ccc3N3CCC[C@@H](N)C3)cs2)cn1 [Compound 26, N-[5-amino-2-(3(R)-amino-1-piperidinyl)phenyl]-2-[1-(2-methoxyethyl)-1H-pyrazol-4-yl]-4-thiazolecarboxamide]
The IC50 of the first is higher: 251 to 1000 nM for the first, 1 to 50 nM for the second.

N[C@@H]1CCCN(c2c(F)cccc2NC(=O)c2csc(-c3cnn(Cc4cccnc4)c3)n2)C1 [Compound 31, N-[2-(3(R)-amino-1-piperidinyl)-3-fluorophenyl]-2-[1-(3-pyridinylmethyl)-1H-pyrazol-4-yl]-4-thiazolecarboxamide] and N[C@@H]1CCCN(c2c(F)cccc2NC(=O)c2csc(-c3cnn(Cc4ccccc4)c3)n2)C1 [Compound 25, N-[2-(3(R)-amino-1-piperidinyl)-3-fluorophenyl]-2-[1-(phenylmethyl)-1H-pyrazol-4-yl]-4-thiazolecarboxamide] fall in the same range of IC50: 51 to 250 nM for the first, 51 to 250 nM for the second.

First: N[C@@H]1CCCN(c2c(F)cccc2NC(=O)c2csc(-c3cnn(Cc4cccs4)c3)n2)C1 [Compound 23, N-[2-(3(R)-amino-1-piperidinyl)-3-fluorophenyl]-2-[1-(2-thienylmethyl)-1H-pyrazol-4-yl]-4-thiazolecarboxamide]
Second: NCC1CCN(c2c(F)cccc2NC(=O)c2csc(-c3cnn(Cc4cccs4)c3)n2)CC1 [Compound 6, N-[2-[4-(aminomethyl)-1-piperidinyl]-3-fluorophenyl]-2-[1-(2-thienylmethyl)-1H-pyrazol-4-yl]-4-thiazolecarboxamide]
The IC50 of the first is lower: 1 to 50 nM for the first, 51 to 250 nM for the second. The first is the more potent here.

First: O=C(Nc1ccccc1N1CCNCC1)c1csc(-c2cnn(Cc3cc(F)ccc3F)c2)n1 [Compound 39, 2-[1-[(2,5-difluorophenyl)methyl]-1H-pyrazol-4-yl]-N-[2-(1-piperazinyl)phenyl]-4-thiazolecarboxamide]
Second: Nc1ccc(N2CCC[C@@H](N)C2)c(NC(=O)c2csc(-c3cnn(Cc4cc(F)ccc4F)c3)n2)c1 [Compound 22, N-[5-amino-2-(3(R)-amino-1-piperidinyl)phenyl]-2-[1-[(2,5-difluorophenyl)methyl]-1H-pyrazol-4-yl]-4-thiazolecarboxamide]
The IC50 of the first is higher: 251 to 1000 nM for the first, 1 to 50 nM for the second. The second is the more potent here.

First: NCC1CCN(c2ccc(N)cc2NC(=O)c2csc(-c3cnn(Cc4ccccn4)c3)n2)CC1 [Compound 24, N-[5-amino-2-[4-(aminomethyl)-1-piperidinyl]phenyl]-2-[1-(2-pyridinylmethyl)-1H-pyrazol-4-yl]-4-thiazolecarboxamide]
Second: Nc1ccc(N2CC[C@@H](N)C2)c(NC(=O)c2csc(-c3cnn(Cc4cccs4)c3)n2)c1 [Compound 10, N-[5-amino-2-(3(R)-amino-1-pyrrolidinyl)phenyl]-2-[1-(2-thienylmethyl)-1H-pyrazol-4-yl]-4-thiazolecarboxamide]
The IC50 of the first is higher: 51 to 250 nM for the first, 1 to 50 nM for the second. The second is the more potent here.

N[C@@H]1CCCN(c2c(F)cccc2NC(=O)c2csc(-c3cnn(Cc4c(F)cccc4CO)c3)n2)C1 [Compound 46, N-[2-(3(R)-amino-1-piperidinyl)-3-fluorophenyl]-2-[1-[[2-fluoro-6-(hydroxymethyl)phenyl]methyl]-1H-pyrazol-4-yl]-4-thiazolecarboxamide] and N[C@@H]1CCCN(c2c(F)cccc2NC(=O)c2csc(-c3cnn(Cc4c(F)cccc4F)c3)n2)C1 [Compound 32, N-[2-(3(R)-amino-1-piperidinyl)-3-fluorophenyl]-2-[1-[(2,6-difluorophenyl)methyl]-1H-pyrazol-4-yl]-4-thiazolecarboxamide] fall in the same range of IC50: 51 to 250 nM for the first, 51 to 250 nM for the second.

First: N[C@@H]1CCCN(c2c(F)cccc2NC(=O)c2csc(-c3cnn(Cc4ccccc4-c4cn[nH]c4)c3)n2)C1 [Compound 50, N-[2-(3(R)-amino-1-piperidinyl)-3-fluorophenyl]-2-[1-[[2-(1h-pyrazol-4-yl)phenyl]methyl]-1H-pyrazol-4-yl]-4-thiazolecarboxamide]
Second: N[C@@H]1CCCN(c2c(F)cccc2NC(=O)c2csc(-c3cnn(Cc4ccccc4CO)c3)n2)C1 [Compound 42, N-[2-(3(R)-amino-1-piperidinyl)-3-fluorophenyl]-2-[1-[[2-(hydroxymethyl)phenyl]methyl]-1H-pyrazol-4-yl]-4-thiazolecarboxamide]
The IC50 of the first is higher: over 1000 nM for the first, 51 to 250 nM for the second. The second is the more potent here.

First: N[C@@H]1CCCN(c2c(F)cccc2NC(=O)c2csc(-c3cnn(Cc4cccc(F)c4F)c3)n2)C1 [Compound 52, N-[2-(3(R)-amino-1-piperidinyl)-3-fluorophenyl]-2-[1-[(2,3-difluorophenyl)methyl]-1H-pyrazol-4-yl]-4-thiazolecarboxamide]
Second: COC(=O)c1cccc(F)c1Cn1cc(-c2nc(C(=O)Nc3cccc(F)c3N3CCC[C@@H](N)C3)cs2)cn1 [Compound 45, methyl 2-[[4-[4-[[[2-(3(R)-amino-1-piperidinyl)-3-fluorophenyl]amino]carbonyl]-2-thiazolyl]-1H-pyrazol-1-yl]methyl]-3-fluorobenzoate]
The IC50 of the first is lower: 51 to 250 nM for the first, 251 to 1000 nM for the second. The first is the more potent here.

First: Nc1ccc(N2CCC[C@@H](N)C2)c(NC(=O)c2csc(-c3cnn(CCN4CCOCC4)c3)n2)c1 [Compound 4, N-[5-amino-2-(3(R)-amino-1-piperidinyl)phenyl]-2-[1-[2-(4-morpholinyl)ethyl]-1H-pyrazol-4-yl]-4-thiazolecarboxamide]
Second: Nc1ccc(N2CCC[C@@H](N)C2)c(NC(=O)c2csc(-c3cnn(CCc4ccccc4)c3)n2)c1 [Compound 17, N-[5-amino-2-(3(R)-amino-1-piperidinyl)phenyl]-2-[1-(2-phenylethyl)-1H-pyrazol-4-yl]-4-thiazolecarboxamide]
The IC50 of the first is higher: 251 to 1000 nM for the first, 1 to 50 nM for the second. The second is the more potent here.

Compared with N[C@@H]1CCCN(c2c(F)cccc2NC(=O)c2csc(-c3cnn(CC4CCNCC4)c3)n2)C1 [Compound 47, N-[2-(3(R)-amino-1-piperidinyl)-3-fluorophenyl]-2-[1-(4-piperidinylmethyl)-1H-pyrazol-4-yl]-4-thiazolecarboxamide], N[C@@H]1CCCN(c2c(F)cccc2NC(=O)c2csc(-c3cnn(Cc4ccccn4)c3)n2)C1 [Compound 27, N-[2-(3(R)-amino-1-piperidinyl)-3-fluorophenyl]-2-[1-(2-pyridinylmethyl)-1H-pyrazol-4-yl]-4-thiazolecarboxamide] is lower in IC50: over 1000 nM for the first, 51 to 250 nM for the second.

First: CCOC(=O)C1CCCN(c2ccc(N)cc2NC(=O)c2csc(-c3cnn(Cc4cccs4)c3)n2)C1 (centres unmarked) [Compound 11, ethyl 1-[4-amino-2-[[[2-[1-(2-thienylmethyl)-1H-pyrazol-4-yl]-4-thiazolyl]carbonyl]amino]phenyl]-3-piperidinecarboxylate]
Second: Nc1ccc(N2CCC3(CC2)OCCO3)c(NC(=O)c2csc(-c3cnn(Cc4cccs4)c3)n2)c1 [Compound 34, N-[5-amino-2-(1,4-dioxa-8-azaspiro[4.5]dec-8-yl)phenyl]-2-[1-(2-thienylmethyl)-1H-pyrazol-4-yl]-4-thiazolecarboxamide]
The IC50 of the first is higher: over 1000 nM for the first, 51 to 250 nM for the second. The second is the more potent here.

Compared with Nc1ccc(N2CCC3(CC2)OCCO3)c(NC(=O)c2csc(-c3cnn(Cc4cccc(F)c4)c3)n2)c1 [Compound 15, N-[5-amino-2-(1,4-dioxa-8-azaspiro[4.5]dec-8-yl)phenyl]-2-[1-[(3-fluorophenyl)methyl]-1H-pyrazol-4-yl]-4-thiazolecarboxamide], N[C@@H]1CCCN(c2c(F)cccc2NC(=O)c2csc(-c3cnn(Cc4c(F)cc(F)cc4F)c3)n2)C1 [Compound 38, N-[2-(3(R)-amino-1-piperidinyl)-3-fluorophenyl]-2-[1-[(2,4,6-trifluorophenyl)methyl]-1H-pyrazol-4-yl]-4-thiazolecarboxamide] is higher in IC50: 1 to 50 nM for the first, 251 to 1000 nM for the second. The first is the more potent here.

N[C@@H]1CCCN(c2c(F)cccc2NC(=O)c2csc(-c3cnn(Cc4ccccc4OC(F)(F)F)c3)n2)C1 [Compound 33, N-[2-(3(R)-amino-1-piperidinyl)-3-fluorophenyl]-2-[1-[[2-(trifluoromethoxy)phenyl]methyl]-1H-pyrazol-4-yl]-4-thiazolecarboxamide] was tested, and the IC50 was over 1000 nM.
